Test results: US11560372B2, “Heterocyclic compounds useful as modulators of acetylcholine receptors” (TAKEDA PHARMACEUTICAL COMPANY LIMITED, priority 2017, dated 2023)

Experiments:
[1] = target: T1, human M1 receptor (hCHRM1) (Homo sapiens, UniProt P11229); experiment: Measurement of M1 receptor positive allosteric modulator (M1PAM) activity, calcium fluorescence in CHO-K1 cells; format: cell-based; conditions: for activity (%) at 10 μM: 10 μM test compound, 100% = acetylcholine final concentration 1 μM, 0% = DMSO; for EC50: inflection point of concentration-dependent curve, in the presence of acetylcholine at EC20 concentration (final 0.8-1.0 nM), read-out: IP value
T1 construct: expressed in transfected cells
T1 sequence (P11229 1-460): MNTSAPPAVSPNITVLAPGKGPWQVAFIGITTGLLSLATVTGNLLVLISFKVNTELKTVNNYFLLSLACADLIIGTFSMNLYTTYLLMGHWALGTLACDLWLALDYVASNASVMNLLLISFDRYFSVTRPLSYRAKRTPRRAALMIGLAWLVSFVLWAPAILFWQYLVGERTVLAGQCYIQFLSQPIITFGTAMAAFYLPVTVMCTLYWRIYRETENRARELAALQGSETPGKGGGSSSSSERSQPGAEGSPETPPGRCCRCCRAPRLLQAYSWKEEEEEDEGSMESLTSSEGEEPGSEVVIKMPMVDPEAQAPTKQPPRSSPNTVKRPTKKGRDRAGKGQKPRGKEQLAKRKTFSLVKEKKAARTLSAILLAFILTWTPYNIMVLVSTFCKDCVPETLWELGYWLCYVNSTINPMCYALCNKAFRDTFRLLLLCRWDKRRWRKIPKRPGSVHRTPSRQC
Method: Measurement of M1 Receptor Positive Allosteric Modulator (M1PAM) Activity
The activity of a test compound in the presence of acetylcholine at EC20 concentration (final concentration 0.8-1.0 nM), which affords an action corresponding to about 20% of the maximum activity, was measured as PAM activity. The method is as follows. CHO-K1 cells stably expressing a human M1 receptor (hCHRM1) were plated on a 384-well black clear bottom plate (BD Falcon) at 5,000 cells/well, and cultured in an incubator at 37° C., 5% CO2 for 1 day. The medium in the cell plate was removed, and assay buffer A containing calcium indicator (Recording medium (DOJINDO LABORATORIES), 0.1% BSA (Wako Pure Chemical Industries, Ltd.), 2.5 μg/mL Fluo-4 AM (DOJINDO LABORATORIES), 0.08% Pluronic F127 (DOJINDO LABORATORIES), 1.25 mM probenecid (DOJINDO LABORATORIES)) was added at 30 μL/well. The cells were left standing in the incubator at 37° C., 5% CO2 for 30 min, and further left standing at room temperature for 30 min. A test compound prepared by diluting with assay buffer B (HBSS (Invitrogen), 20 mM HEPES (Invitrogen), 0.1% BSA) containing 3.2-4.0 nM acetylcholine was added at 10 μL/well, and the fluorescence was measured by FDSS/pCELL (Hamamatsu Photonics K.K.) for 1 min every for 1 second. With the definition that the amount of change in the fluorescence on addition of acetylcholine (final concentration 1 μM) is 100% and that on addition of DMSO instead of a test compound is 0%, the activity (%) of the test compound was calculated, and the inflection point in the concentration-dependent curve of the test compound was calculated as IP values.

MDR1 = target: T2, MDR1 (Homo sapiens, UniProt P08183); experiment: MDR1 membrane permeability test; format: in vitro ADME; conditions: pH 7.4, efflux ratio (ER), Papp B to A / A to B, human MDR1-expressing LLC-PK1 cells, read-out: MDR1 substrate screening 1 μM (MDRSUB1)/Ratio (NUMBER)
T2 construct: expressed in transfected cells
Method: MDR1 Membrane Permeability Test
When MDR1 is expressed in excess in LLC-PK1 cell, which is a polar cell, MDR1 is localized in apical membrane (A), thus promoting transcellular transport from the basement membrane side (B) toward direction A. When a ratio to the transcellular transport in the opposite direction is taken and a ratio to a control cell in which a mock vector has been introduced is further taken, an efflux ratio of MDR1 to simple diffusion (corrected efflux ratio) is calculated. Similarly, when a brain/plasma concentration ratio in Mdr1(−/−) mouse is divided by a brain/plasma concentration ratio in wild-type mouse, an efflux ratio of Mdr1 to simple diffusion in BBB (Kp, brain ratio, higher value means lower central nervous system permeability) is calculated. Adachi Y. et al. (Reference 1) has reported a positive correlation between corrected efflux ratio and Kp, brain ratio (FIG. 5(C)), and efflux ratio in MDR1 expressing cell and Kp, brain ratio (FIG. 5(B)).
To confirm the central nervous system permeability of the compounds of the present invention, a MDR1 membrane permeability test was performed by the following method.
Human MDR1-expressing LLC-PK1 cells were cultured according to the report of Takeuchi et al. (Reference 2). Human MDR1-expressing LLC-PK1 cells were cultured in 10% fetal bovine serum (Invitrogen), 500 μg/ml G418 (Invitrogen), 150 ng/ml colchicine-containing M199 medium (Invitrogen) under 5% CO2 conditions at 37° C.
Transcellular transport was performed according to the report of Sugimoto et al. (Reference 3). The cells were cultured for 3 days on HTS Transwell (registered trademark) 96 well permeable support (pore size 0.4 μm, 0.143 cm^2 surface area, Corning Life Sciences) having polyethylene terephthalate membrane on which the cells had been seeded at 3.45×10^4 cells/well. After preincubation in M199 medium (containing 10 mmol/L HEPES, 1% BSA, pH 7.4) for 30 min, a drug solution (10 μmol/L digoxin, 200 μmol/L LY, […]) dissolved in M199 medium was added to the apical side or basolateral side of the Transwell by 75 or 250 μL each and the cells were cultured under 5% CO2 conditions at 37° C. After 1 hr, the sample was collected from the side opposite to the side where the drug solution was added, and the concentration of the test compound was measured by LC-MS/MS. As an internal standard substance, 100 ng/mL alprenolol and diclofenac were used. The analysis conditions were as follows.
Papp, A to B and Papp, B to A (apparent permeability) were calculated from the formula (1), and the efflux ratio (ER) was calculated from the formula (2).

T2 sequence (P08183 whole entry): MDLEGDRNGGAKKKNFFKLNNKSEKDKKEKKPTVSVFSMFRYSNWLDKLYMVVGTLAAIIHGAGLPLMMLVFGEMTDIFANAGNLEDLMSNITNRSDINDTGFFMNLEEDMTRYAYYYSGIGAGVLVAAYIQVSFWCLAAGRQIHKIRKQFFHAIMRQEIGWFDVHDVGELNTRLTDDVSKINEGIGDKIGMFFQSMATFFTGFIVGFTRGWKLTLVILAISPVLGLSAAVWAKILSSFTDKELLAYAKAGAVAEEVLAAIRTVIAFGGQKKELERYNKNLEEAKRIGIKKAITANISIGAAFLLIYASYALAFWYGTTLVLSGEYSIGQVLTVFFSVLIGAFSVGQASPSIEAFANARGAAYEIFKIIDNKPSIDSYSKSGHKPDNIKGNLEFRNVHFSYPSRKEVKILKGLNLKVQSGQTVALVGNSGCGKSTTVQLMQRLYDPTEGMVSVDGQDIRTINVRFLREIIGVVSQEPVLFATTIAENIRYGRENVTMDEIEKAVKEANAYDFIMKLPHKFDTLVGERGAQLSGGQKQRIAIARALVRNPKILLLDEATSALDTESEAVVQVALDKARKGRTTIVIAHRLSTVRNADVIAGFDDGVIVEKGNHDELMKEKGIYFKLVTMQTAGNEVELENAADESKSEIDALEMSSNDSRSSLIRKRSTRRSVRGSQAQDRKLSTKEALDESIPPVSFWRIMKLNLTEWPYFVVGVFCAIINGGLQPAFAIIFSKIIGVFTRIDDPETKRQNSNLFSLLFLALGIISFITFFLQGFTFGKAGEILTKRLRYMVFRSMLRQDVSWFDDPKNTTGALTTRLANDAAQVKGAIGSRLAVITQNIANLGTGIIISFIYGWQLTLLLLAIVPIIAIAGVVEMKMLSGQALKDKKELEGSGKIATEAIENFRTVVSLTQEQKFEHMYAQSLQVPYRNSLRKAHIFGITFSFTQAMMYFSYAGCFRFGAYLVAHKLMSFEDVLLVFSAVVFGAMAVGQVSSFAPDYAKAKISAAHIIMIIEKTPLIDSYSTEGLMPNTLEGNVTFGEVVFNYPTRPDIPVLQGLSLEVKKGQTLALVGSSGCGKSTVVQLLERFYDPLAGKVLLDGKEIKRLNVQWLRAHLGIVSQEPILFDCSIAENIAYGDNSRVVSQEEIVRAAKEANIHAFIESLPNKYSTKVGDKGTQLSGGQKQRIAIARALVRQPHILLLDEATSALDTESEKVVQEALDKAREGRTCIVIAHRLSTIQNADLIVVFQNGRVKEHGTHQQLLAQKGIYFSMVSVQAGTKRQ

activity (%) at 10 μM [1] [%]	EC50 [1] [nM]	efflux ratio at 1 hr, 1 μM (MDR1)	SMILES
101	2.1	4.7	Cc1c(Cc2ccc(-c3ccn(C)n3)nc2)cc2c(=O)n([C@H]3CCOC[C@@H]3O)cnc2c1C [Example 1, 1,5-anhydro-2,3-dideoxy-3-(7,8-dimethyl-6-((6-(1-methyl-1H-pyrazol-3-yl)pyridin-3-yl)methyl)-4-oxoquinazolin-3(4H)-yl)-L-threo-pentitol]
101	2	5.7	Cc1cc(-c2ccc(Cc3cc4c(=O)n([C@H]5CCOC[C@@H]5O)cnc4c(C)c3C)cc2)cnn1 [Example 4, 1,5-anhydro-2,3-dideoxy-3-(7,8-dimethyl-6-(4-(6-methylpyridazin-4-yl)benzyl)-4.-oxoquinazolin-3(4H)-yl)-L-threo-pentitol]
97	1.4	4.8	Cc1c(Cc2ccc(-c3cn(C)nn3)cc2)cc2c(=O)n([C@H]3CCOC[C@@H]3O)cnc2c1C [Example 8, 1,5-anhydro-2,3-dideoxy-3-(7,8-dimethyl-6-(4-(1-methyl-1H-1,2,3-triazol-4-yl)benzyl)-4-oxoquinazolin-3(4H)-yl)-L-threo-pentitol]
109	3.3	2.1	Cc1c(Cc2ccc(-c3cnn(C)c3)cc2)cc2c(=O)n([C@H]3CCOC[C@@H]3O)cnc2c1C [Example 9, 1,5-anhydro-2,3-dideoxy-3-(7,8-dimethyl-6-(4-(1-methyl-1H-pyrazol-4-yl)benzyl)-4-oxoquinazolin-3(4H)-yl)-L-threo-pentitol]
100	0.91	17	Cc1c(Cc2ccc(-c3cnn(C)c3)nc2)cc2c(=O)n([C@H]3CCOC[C@@H]3O)cnc2c1Cl [Example 11, 1,5-anhydro-3-(8-chloro-7-methyl-6-((6-(1-methyl-1H-pyrazol-4-yl)pyridin-3-yl)methyl)-4-oxoquinazolin-3(4H)-yl)-2,3-dideoxy-L-threo-pentitol]
101	1	38	Cc1c(Cc2ccc(-c3ccn(C)n3)nc2)cc2c(=O)n([C@H]3CCOC[C@@H]3O)cnc2c1Cl [Example 13, 1,5-anhydro-3-(8-chloro-7-methyl-6-((6-(1-methyl-1H-pyrazol-3-yl)pyridin-3-yl)methyl)-4-oxoquinazolin-3(4H)-yl)-2,3-dideoxy-L-threo-pentitol]
106	1	24	CNC(=O)c1ccc(Cc2cc3c(=O)n([C@H]4CCOC[C@@H]4O)cnc3c(C)c2C)cc1 [Example 18, 1,5-anhydro-2,3-dideoxy-3-(7,8-dimethyl-6-(4-(methylcarbamoyl)benzyl)-4-oxoquinazolin-3(4H)-yl)-L-threo-pentitol]
108	3.7	3.4	Cc1c(Cc2ccc(-c3cnn(C)c3)cc2)cc2c(=O)n([C@H]3CCOC[C@@H]3O)cnc2c1F [Example 24, 1,5-anhydro-2,3-dideoxy-3-(8-fluoro-7-methyl-6-(4-(1-methyl-1H-pyrazol-4-yl)benzyl)-4-oxoquinazolin-3(4H)-yl)-L-threo-pentitol]
109	1.9	16	Cc1c(Cc2ccc(C(=O)NC3CC(F)(F)C3)cc2)cc2c(=O)n([C@H]3CCOC[C@@H]3O)cnc2c1C [Example 25, 1,5-anhydro-2,3-dideoxy-3-(6-(4-((3,3-difluorocyclobutyl)-carbamoyl)benzyl)-7,8-dimethyl-4-oxoquinazolin-3(4H)-yl)-L-threo-pentitol]
110	1.4	23	Cc1c(Cc2ccc(C(=O)NC3COC3)cc2)cc2c(=O)n([C@H]3CCOC[C@@H]3O)cnc2c1C [Example 27, 1,5-anhydro-2,3-dideoxy-3-(7,8-dimethyl-6-(4-(oxetan-3-ylcarbamoyl)benzyl)-4-oxoquinazolin-3(4H)-yl)-L-threo-pentitol]
112	1.6	12	Cc1c(Cc2ccc(C(=O)NCC3CC3)cc2)cc2c(=O)n([C@H]3CCOC[C@@H]3O)cnc2c1C [Example 29, 1,5-anhydro-3-(6-(4-((cyclopropylmethyl)carbamoyl)-benzyl)-7,8-dimethyl-4-oxoquinazolin-3 (4H)-yl)-2,3-dideoxy-L-threo-pentitol]
111	1.8	20	Cc1c(Cc2ccc(C(=O)NC3CCOC3)cc2)cc2c(=O)n([C@H]3CCOC[C@@H]3O)cnc2c1C (stereo partly drawn) [Example 33, 1,5-anhydro-2,3-dideoxy-3-(7,8-dimethyl-4-oxo-6-(4-(tetrahydrofuran-3-ylcarbamoyl)benzyl)quinazolin-3 (4H)-yl)-L-threo-pentitol]
112	3.3	–	Cc1c(Cc2ccc(C(=O)NCC(C)(C)O)cc2)cc2c(=O)n([C@H]3CCOC[C@@H]3O)cnc2c1C [Example 39, 1,5-anhydro-2,3-dideoxy-3-(6-(4-((2-hydroxy-2-methylpropyl)carbamoyl)benzyl)-7,8-dimethyl-4-oxoquinazolin-3 (4H)-yl)-L-threo-pentitol]
–	–	16	Cc1c(Cc2ccc(C(=O)NC3(C#N)CC3)c(F)c2)cc2c(=O)n([C@H]3CCOC[C@@H]3O)cnc2c1C [Example 89, 1,5-anhydro-3-(6-(4-((1-cyanocyclopropyl)carbamoyl)-3-fluorobenzyl)-7,8-dimethyl-4-oxoquinazolin-3 (4H)-yl)-2,3-dideoxy-L-threo-pentitol]
–	–	5.9	CNC(=O)c1ccc(Cc2cc3c(=O)n([C@H]4CCOC[C@@H]4O)nnc3c(C)c2C)cn1 [Example 91, 1,5-anhydro-2,3-dideoxy-3-(7,8-dimethyl-6-((6-(methylcarbamoyl)pyridin-3-yl)methyl)-4-oxo-1,2,3-benzotriazin-3 (4H)-yl)-L-threo-pentitol]
